Reference: the NIST ThermoML archive (doi:10.1021/je400130b)
Values joined by “and” are separate entries in the source; they are usually repeats but may differ in a detail not shown here. Equal entries are not always repeated. ± gives the expanded uncertainty stated by the source.

Assay: molar heat capacity at constant pressure
Conditions: 101.33 kPa, Crystal, Small (less than 1 g) adiabatic calorimetry

O=S(=O)([O-])[O-].[Cu+2].[Cu+2].[Cu+2].[OH-].[OH-].[OH-].[OH-] [copper(II) tetrahydroxide sulfate]
Conditions	molar heat capacity at constant pressure
4 K	4.402 ± 0.1 J/K/mol
4.276 K	3.87 ± 0.094 J/K/mol
4.321 K	4.927 ± 0.11 J/K/mol
4.467 K	6.058 ± 0.13 J/K/mol
4.5 K	6.267 ± 0.13 J/K/mol
4.571 K	6.664 ± 0.14 J/K/mol
4.751 K	7.35 ± 0.15 J/K/mol
4.944 K	8.855 ± 0.18 J/K/mol and 8.884 ± 0.18 J/K/mol
5 K	9.138 ± 0.18 J/K/mol
5.109 K	9.647 ± 0.19 J/K/mol
5.218 K	10.19 ± 0.2 J/K/mol
5.281 K	10.29 ± 0.2 J/K/mol
5.461 K	10.03 ± 0.2 J/K/mol
5.496 K	9.756 ± 0.19 J/K/mol
5.659 K	8.612 ± 0.17 J/K/mol
5.818 K	7.934 ± 0.16 J/K/mol
5.864 K	7.741 ± 0.16 J/K/mol
6 K	7.452 ± 0.15 J/K/mol
6.058 K	7.363 ± 0.15 J/K/mol
6.147 K	7.235 ± 0.15 J/K/mol
6.298 K	7.044 ± 0.14 J/K/mol
6.566 K	6.796 ± 0.14 J/K/mol
6.592 K	6.689 ± 0.14 J/K/mol
6.889 K	6.159 ± 0.13 J/K/mol
7 K	6.491 ± 0.13 J/K/mol
7.099 K	6.461 ± 0.13 J/K/mol
7.18 K	6.397 ± 0.13 J/K/mol
7.46 K	6.264 ± 0.13 J/K/mol
7.635 K	6.223 ± 0.13 J/K/mol
7.743 K	6.172 ± 0.12 J/K/mol
8 K	6.095 ± 0.12 J/K/mol
8.024 K	6.079 ± 0.12 J/K/mol
8.159 K	6.056 ± 0.12 J/K/mol
8.304 K	6.014 ± 0.12 J/K/mol
8.585 K	5.956 ± 0.12 J/K/mol
8.67 K	5.936 ± 0.12 J/K/mol
8.866 K	5.89 ± 0.12 J/K/mol
9 K	5.868 ± 0.12 J/K/mol
9.144 K	5.841 ± 0.12 J/K/mol
9.172 K	5.855 ± 0.12 J/K/mol
9.421 K	5.784 ± 0.11 J/K/mol
9.668 K	5.798 ± 0.11 J/K/mol
9.696 K	5.748 ± 0.11 J/K/mol
9.972 K	5.754 ± 0.11 J/K/mol
10 K	5.75 ± 0.11 J/K/mol
10.16 K	5.732 ± 0.11 J/K/mol
10.63 K	5.745 ± 0.11 J/K/mol
10.93 K	5.732 ± 0.11 J/K/mol
11.68 K	5.739 ± 0.11 J/K/mol
11.98 K	5.75 ± 0.11 J/K/mol
12.74 K	5.81 ± 0.11 J/K/mol
13.03 K	5.85 ± 0.11 J/K/mol
13.78 K	5.989 ± 0.11 J/K/mol
14.06 K	6.069 ± 0.11 J/K/mol
14.8 K	6.285 ± 0.11 J/K/mol
15 K	6.341 ± 0.11 J/K/mol
15.07 K	6.393 ± 0.11 J/K/mol
15.81 K	6.636 ± 0.11 J/K/mol
16.07 K	6.722 ± 0.11 J/K/mol
16.8 K	6.975 ± 0.11 J/K/mol
17.07 K	7.117 ± 0.11 J/K/mol
17.8 K	7.522 ± 0.12 J/K/mol
18.06 K	7.677 ± 0.12 J/K/mol
18.78 K	8.087 ± 0.12 J/K/mol
19.04 K	8.238 ± 0.12 J/K/mol
19.76 K	8.67 ± 0.12 J/K/mol
20 K	8.85 ± 0.13 J/K/mol
20.02 K	8.833 ± 0.13 J/K/mol
21.22 K	9.779 ± 0.13 J/K/mol
21.5 K	9.988 ± 0.13 J/K/mol
23.18 K	11.26 ± 0.14 J/K/mol
23.46 K	11.52 ± 0.14 J/K/mol
25 K	12.91 ± 0.15 J/K/mol
25.15 K	13.02 ± 0.15 J/K/mol
27.12 K	14.99 ± 0.16 J/K/mol
29.09 K	17.14 ± 0.16 J/K/mol
30 K	18.13 ± 0.19 J/K/mol
31.06 K	19.35 ± 0.2 J/K/mol
33.03 K	21.62 ± 0.21 J/K/mol
34.81 K	23.66 ± 0.22 J/K/mol
35 K	24 ± 0.22 J/K/mol
35.01 K	23.95 ± 0.22 J/K/mol
36.98 K	26.35 ± 0.23 J/K/mol
37.09 K	26.53 ± 0.23 J/K/mol
38.96 K	28.94 ± 0.24 J/K/mol
39.07 K	29.08 ± 0.25 J/K/mol
40 K	30.19 ± 0.25 J/K/mol
41.04 K	31.63 ± 0.26 J/K/mol
43.02 K	34.11 ± 0.27 J/K/mol
44.99 K	36.64 ± 0.28 J/K/mol
45 K	36.59 ± 0.28 J/K/mol
46.97 K	39.09 ± 0.29 J/K/mol
48.95 K	41.56 ± 0.31 J/K/mol
50 K	43.07 ± 0.32 J/K/mol
50.93 K	44.19 ± 0.32 J/K/mol
52.91 K	46.98 ± 0.33 J/K/mol
54.89 K	49.62 ± 0.35 J/K/mol
55 K	49.46 ± 0.35 J/K/mol
56.88 K	51.68 ± 0.36 J/K/mol
58.87 K	53.87 ± 0.37 J/K/mol
60 K	55.63 ± 0.38 J/K/mol
60.86 K	56.7 ± 0.38 J/K/mol
62.84 K	59.19 ± 0.4 J/K/mol
64.84 K	61.5 ± 0.41 J/K/mol
65 K	61.62 ± 0.41 J/K/mol
66.82 K	63.78 ± 0.42 J/K/mol
68.81 K	66.04 ± 0.43 J/K/mol
70 K	67.43 ± 0.44 J/K/mol
70.81 K	68.24 ± 0.44 J/K/mol
73.31 K	71.15 ± 0.45 J/K/mol
75 K	73.06 ± 0.47 J/K/mol
76.31 K	74.53 ± 0.47 J/K/mol
79.15 K	77.5 ± 0.49 J/K/mol
79.33 K	77.85 ± 0.49 J/K/mol
80 K	78.53 ± 0.49 J/K/mol
82.35 K	81.16 ± 0.51 J/K/mol
82.87 K	81.56 ± 0.51 J/K/mol
85 K	83.89 ± 0.52 J/K/mol
85.92 K	84.81 ± 0.53 J/K/mol
87.61 K	86.67 ± 0.53 J/K/mol
88.97 K	88.01 ± 0.54 J/K/mol
90 K	89.13 ± 0.56 J/K/mol
91.38 K	90.45 ± 0.56 J/K/mol
92.02 K	91.18 ± 0.56 J/K/mol
94.44 K	93.68 ± 0.57 J/K/mol
95 K	94.27 ± 0.58 J/K/mol
95.08 K	94.4 ± 0.58 J/K/mol
97.53 K	96.77 ± 0.59 J/K/mol
98.16 K	97.48 ± 0.59 J/K/mol
100 K	99.3 ± 0.6 J/K/mol
100.62 K	99.85 ± 0.6 J/K/mol
101.24 K	100.56 ± 0.6 J/K/mol
103.71 K	102.89 ± 0.61 J/K/mol
104.33 K	103.67 ± 0.61 J/K/mol
106.81 K	105.92 ± 0.62 J/K/mol
107.42 K	106.61 ± 0.63 J/K/mol
109.92 K	109.04 ± 0.63 J/K/mol
110 K	109.1 ± 0.6 J/K/mol
110.53 K	109.61 ± 0.64 J/K/mol
113.05 K	112.01 ± 0.65 J/K/mol
113.64 K	112.58 ± 0.65 J/K/mol
116.17 K	114.94 ± 0.66 J/K/mol
116.76 K	115.5 ± 0.66 J/K/mol
119.31 K	118.07 ± 0.67 J/K/mol
119.89 K	118.47 ± 0.67 J/K/mol
120 K	118.6 ± 0.7 J/K/mol
122.46 K	120.84 ± 0.68 J/K/mol
123.02 K	121.58 ± 0.68 J/K/mol
125.61 K	123.78 ± 0.7 J/K/mol
126.17 K	124.44 ± 0.7 J/K/mol
128.76 K	126.79 ± 0.71 J/K/mol
129.34 K	127.55 ± 0.71 J/K/mol
130 K	128.1 ± 0.7 J/K/mol
131.93 K	129.76 ± 0.72 J/K/mol
132.5 K	130.3 ± 0.72 J/K/mol
135.11 K	132.59 ± 0.73 J/K/mol
135.67 K	133.23 ± 0.73 J/K/mol
138.3 K	135.82 ± 0.74 J/K/mol
138.84 K	136.39 ± 0.74 J/K/mol
140 K	137.4 ± 0.8 J/K/mol
141.49 K	138.48 ± 0.76 J/K/mol
142.03 K	139.28 ± 0.76 J/K/mol
